# Measured values as given in patent US11826368B2 (DAEGU GYEONGBUK INSTITUTE OF SCIENCE AND TECHNOLOGY, priority 2018, dated 2023).
# System: BV2 microglial cells
# Test: MTT assay for cytotoxicity toward BV2 microglial cells
# Assay type: cell-based
# Details: 24 hours
# Procedure: Cell viability was assessed using the 3-(4,5-dimethylthiazol-2-yl)-2,5-diphenyltetrazolium bromide (MTT) assay. […] The cells were then treated with 0.5 mg/ml MTT and incubated for 3 hours at 37° C. in a 5% CO2 incubator. Absorbance was read at 580 nm.
smiles,measurement,setting,value
C=CC(=O)N1CCC[C@@H](n2nc(-c3ccc(Oc4ccccc4)cc3)c3c(N)ncnc32)C1 [ibrutinib],cytotoxicity in BV2 microglial cells,50 μM,cell death was detected
same,cytotoxicity in BV2 microglial cells,concentrations up to 25 μM,did not induce cytotoxicity
